Measurements reported in patent US10131652B2, “Pyrimidinyloxy benzene derivatives as herbicides” (E. I. DU PONT DE NEMOURS AND COMPANY, priority 2014, dated 2018).

Key:
Assay type in all cases: in vivo
[1] = test system: small-flower umbrella sedge (Cyperus difformis); assay: Test C flooded paddy test plant response; conditions: Flood, 250 g ai/ha; scale of 0 to 100 where 0 is no effect and 100 is complete control; 13 to 15 days
How it was run: (§1)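 Scored visually on a 0–100 scale (100 = complete control) against untreated plants 13 to 15 days after treatment in the greenhouse. Compounds went into paddy water of pots flooded to 3 cm, holding 2-leaf-stage plants.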

[2] = test system: barnyardgrass (Echinochloa crus-galli); assay: Test C flooded paddy test plant response; conditions: Flood, 250 g ai/ha; scale of 0 to 100 where 0 is no effect and 100 is complete control; 13 to 15 days
How it was run: as §1

rice (Oryza sativa) = assay: Test C flooded paddy test plant response; conditions: Flood, 250 g ai/ha; scale of 0 to 100 where 0 is no effect and 100 is complete control; 13 to 15 days
How it was run: as §1

[3] = test system: ducksalad (Heteranthera limosa); assay: Test C flooded paddy test plant response; conditions: Flood, 250 g ai/ha; scale of 0 to 100 where 0 is no effect and 100 is complete control; 13 to 15 days
How it was run: as §1

[4] = test system: chickweed (common chickweed, Stellaria media); assay: Test D postemergence plant response; conditions: for Chickweed plant response rating: scale 0 to 100 (0 no effect, 100 complete control); for Plant response rating, Chickweed: scale 0 to 100, 0 no effect, 100 complete control
Excerpt: (§2) At the same time, plants selected from these crop and weed species and also kochia (Kochia scoparia), wild oat (Avena fatua), and chickweed (common chickweed, Stellaria media) were planted in pots containing Redi-Earth® planting medium (Scotts Company, 14111 Scottslawn Road, Marysville, Ohio 43041) comprising spaghnum peat moss, vermiculite, wetting agent and starter nutrients and treated with postemergence applications of test chemicals formulated in the same manner. Plants ranged in height from 2 to 18 cm (1- to 4-leaf stage) for postemergence treatments. Treated plants and controls were maintained in a greenhouse for 13 to 15 days, after which time all species were compared to controls and visually evaluated. Plant response ratings, summarized in Table D, are based on a scale of 0 to 100 where 0 is no effect and 100 is complete control. A dash (-) response means no test result.

kochia (Kochia scoparia) = assay: Test D postemergence plant response; conditions: for Kochia plant response rating: scale 0 to 100 (0 no effect, 100 complete control); for Plant response rating, Kochia: scale 0 to 100, 0 no effect, 100 complete control
Excerpt: as §2

wild oat (Avena fatua) = assay: Test D postemergence plant response
Excerpt: as §2

[5] = test system: yellow nutsedge (Cyperus esculentus); assay: Test D pre-/postemergence plant response
How it was run: (§3)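 Visual injury scoring (0–100) at 13 to 15 days in greenhouse. Preemergence sprays on seeded loam/sand; postemergence sprays on 1–4 leaf plants.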

[6] = test system: oilseed rape (Brassica napus); assay: Test D pre-/postemergence plant response
How it was run: as §3

[7] = test system: johnsongrass (Sorghum halepense); assay: Test D pre-/postemergence plant response
How it was run: as §3

[8] = test system: large (Lg) crabgrass (Digitaria sanguinalis); assay: Test D pre-/postemergence plant response
How it was run: as §3

soybean (Glycine max) = assay: Test D pre-/postemergence plant response
How it was run: as §3

[9] = test system: winter wheat (Triticum aestivum); assay: Test D pre-/postemergence plant response
How it was run: as §3

[10] = test system: velvetleaf (Abutilon theophrasti); assay: Test D pre-/postemergence plant response
How it was run: as §3

[11] = 31 g ai/ha, scale 0 to 100 (0 no effect, 100 complete control)
[12] = 62 g ai/ha, scale 0 to 100, 0 no effect, 100 complete control
[13] = 125 g ai/ha, scale 0 to 100, 0 no effect, 100 complete control
[14] = Postemergence, 16 g ai/ha, scale 0 to 100 (0 no effect, 100 complete control)
[15] = Postemergence, 31 g ai/ha, scale 0 to 100 (0 no effect, 100 complete control)
[16] = Postemergence, 62 g ai/ha, scale 0 to 100, 0 no effect, 100 complete control
[17] = Postemergence, 125 g ai/ha, scale 0 to 100, 0 no effect, 100 complete control
[18] = Preemergence, 16 g ai/ha, scale 0 to 100 (0 no effect, 100 complete control)
[19] = Preemergence, 31 g ai/ha, scale 0 to 100 (0 no effect, 100 complete control)
[20] = Preemergence, 62 g ai/ha, scale 0 to 100 (0 no effect, 100 complete control)

FC(F)c1cc(-c2c(Cl)cccc2Oc2ncc(Cl)cn2)on1 [Compound 120]
Sedge, Umbrella plant response rating [1]: 95 | Barnyardgrass plant response rating [2]: 90 | Rice plant response rating (rice (Oryza sativa)): 90 | Ducksalad plant response rating [3]: 100 | Chickweed plant response rating ([4]; 16 g ai/ha): 95 | Chickweed plant response rating ([4]; 31 g ai/ha): 100 | Plant response rating, Chickweed ([4]; 62 g ai/ha): 100 | Plant response rating, Chickweed ([4]; 125 g ai/ha): 100 | Kochia plant response rating (kochia (Kochia scoparia); 16 g ai/ha): 98 | Kochia plant response rating (kochia (Kochia scoparia); 31 g ai/ha): 100 | Plant response rating, Kochia (kochia (Kochia scoparia); 62 g ai/ha): 100 | Plant response rating, Kochia (kochia (Kochia scoparia); 125 g ai/ha): 100 | Oat, Wild plant response rating (wild oat (Avena fatua); 16 g ai/ha, scale 0 to 100 (0 no effect, 100 complete control)): 35 | Oat, Wild plant response rating (wild oat (Avena fatua); [11]): 40 | Plant response rating, Oat, Wild (wild oat (Avena fatua); [12]): 55 | Plant response rating, Oat, Wild (wild oat (Avena fatua); [13]): 60 | Nutsedge, Yellow plant response rating [5, 14]: 5 | Nutsedge, Yellow plant response rating [5, 15]: 10 | Plant response rating, Nutsedge, Yellow [5, 16]: 10 | Plant response rating, Nutsedge, Yellow [5, 17]: 15 | Plant response rating (scale 0 to 100), Nutsedge, Yellow ([5]; Preemergence, 125 g ai/ha): 45 | Plant response rating, Nutsedge, Yellow [5, 18]: 0 | Plant response rating, Nutsedge, Yellow [5, 19]: 5 | Plant response rating, Nutsedge, Yellow [5, 20]: 35 | Oilseed Rape plant response rating [6, 14]: 80 | Oilseed Rape plant response rating [6, 15]: 85 | Plant response rating, Oilseed Rape [6, 16]: 90 | Plant response rating, Oilseed Rape [6, 17]: 95 | Plant response rating (scale 0 to 100), Oilseed Rape ([6]; Preemergence, 125 g ai/ha): 100 | Plant response rating, Oilseed Rape [6, 18]: 50 | Plant response rating, Oilseed Rape [6, 19]: 90 | Plant response rating, Oilseed Rape [6, 20]: 95 | Johnsongrass plant response rating [7, 14]: 5 | Johnsongrass plant response rating [7, 15]: 30 | Plant response rating, Johnsongrass [7, 16]: 40 | Plant response rating, Johnsongrass [7, 17]: 85 | Plant response rating (scale 0 to 100), Johnsongrass ([7]; Preemergence, 125 g ai/ha): 98 | Plant response rating, Johnsongrass [7, 18]: 50 | Plant response rating, Johnsongrass [7, 19]: 55 | Plant response rating, Johnsongrass [7, 20]: 95 | Crabgrass, Large plant response rating [8, 14]: 30 | Crabgrass, Large plant response rating [8, 15]: 25 | Plant response rating, Crabgrass, Large [8, 16]: 35 | Plant response rating, Crabgrass, Large [8, 17]: 65 | Plant response rating (scale 0 to 100), Crabgrass, Large ([8]; Preemergence, 125 g ai/ha): 100 | Plant response rating, Crabgrass, Large [8, 18]: 98 | Plant response rating, Crabgrass, Large [8, 19]: 100 | Plant response rating, Crabgrass, Large [8, 20]: 100 | Soybean plant response rating (soybean (Glycine max); [14]): 90 | Soybean plant response rating (soybean (Glycine max); [15]): 70 | Plant response rating, Soybean (soybean (Glycine max); [16]): 70 | Plant response rating, Soybean (soybean (Glycine max); [17]): 95 | Plant response rating (scale 0 to 100), Soybean (soybean (Glycine max); Preemergence, 125 g ai/ha): 50 | Plant response rating, Soybean (soybean (Glycine max); [18]): 75 | Plant response rating, Soybean (soybean (Glycine max); [19]): 10 | Plant response rating, Soybean (soybean (Glycine max); [20]): 60 | Wheat plant response rating [9, 14]: 0 | Wheat plant response rating [9, 15]: 0 | Plant response rating, Wheat [9, 16]: 0 | Plant response rating, Wheat [9, 17]: 0 | Plant response rating (scale 0 to 100), Wheat ([9]; Preemergence, 125 g ai/ha): 5 | Plant response rating, Wheat [9, 18]: 0 | Plant response rating, Wheat [9, 19]: 0 | Plant response rating, Wheat [9, 20]: 5 | Velvetleaf plant response rating [10, 14]: 70 | Velvetleaf plant response rating [10, 15]: 85 | Plant response rating, Velvetleaf [10, 16]: 100 | Plant response rating, Velvetleaf [10, 17]: 100 | Plant response rating (scale 0 to 100), Velvetleaf ([10]; Preemergence, 125 g ai/ha): 100 | Plant response rating, Velvetleaf [10, 18]: 50 | Plant response rating, Velvetleaf [10, 19]: 75 | Plant response rating, Velvetleaf [10, 20]: 100

Fc1ccc(Oc2ncc(Cl)cn2)c(-c2cc(C(F)(Cl)Cl)on2)c1 [Compound 221]
Sedge, Umbrella plant response rating [1]: 95 | Barnyardgrass plant response rating [2]: 0 | Rice plant response rating (rice (Oryza sativa)): 0 | Ducksalad plant response rating [3]: 100 | Plant response rating (scale 0 to 100), Chickweed ([4]; 16 g ai/ha): 75 | Chickweed plant response rating ([4]; 31 g ai/ha): 85 | Plant response rating, Chickweed ([4]; 62 g ai/ha): 80 | Plant response rating, Chickweed ([4]; 125 g ai/ha): 100 | Plant response rating (scale 0 to 100), Kochia (kochia (Kochia scoparia); 16 g ai/ha): 98 | Kochia plant response rating (kochia (Kochia scoparia); 31 g ai/ha): 100 | Plant response rating, Kochia (kochia (Kochia scoparia); 62 g ai/ha): 100 | Plant response rating, Kochia (kochia (Kochia scoparia); 125 g ai/ha): 100 | Plant response rating (scale 0 to 100), Oat, Wild (wild oat (Avena fatua); 16 g ai/ha): 5 | Oat, Wild plant response rating (wild oat (Avena fatua); [11]): 10 | Oat, Wild plant response rating (wild oat (Avena fatua); [12]): 10 | Plant response rating, Oat, Wild (wild oat (Avena fatua); [13]): 35 | Plant response rating (scale 0 to 100), Nutsedge, Yellow ([5]; Postemergence, 16 g ai/ha): 5 | Nutsedge, Yellow plant response rating [5, 15]: 5 | Nutsedge, Yellow plant response rating [5, 16]: 5 | Plant response rating, Nutsedge, Yellow [5, 17]: 10 | Plant response rating (scale 0 to 100), Oilseed Rape ([6]; Postemergence, 16 g ai/ha): 70 | Oilseed Rape plant response rating [6, 15]: 70 | Oilseed Rape plant response rating [6, 16]: 90 | Plant response rating, Oilseed Rape [6, 17]: 90 | Plant response rating (scale 0 to 100), Johnsongrass ([7]; Postemergence, 16 g ai/ha): 0 | Johnsongrass plant response rating [7, 15]: 5 | Plant response rating, Johnsongrass [7, 16]: 15 | Plant response rating, Johnsongrass [7, 17]: 15 | Plant response rating (scale 0 to 100), Crabgrass, Large ([8]; Postemergence, 16 g ai/ha): 10 | Crabgrass, Large plant response rating [8, 15]: 10 | Plant response rating, Crabgrass, Large [8, 16]: 25 | Plant response rating, Crabgrass, Large [8, 17]: 30 | Plant response rating (scale 0 to 100), Soybean (soybean (Glycine max); Postemergence, 16 g ai/ha): 35 | Soybean plant response rating (soybean (Glycine max); [15]): 25 | Soybean plant response rating (soybean (Glycine max); [16]): 85 | Plant response rating, Soybean (soybean (Glycine max); [17]): 90 | Plant response rating (scale 0 to 100), Wheat ([9]; Postemergence, 16 g ai/ha): 0 | Wheat plant response rating [9, 15]: 0 | Wheat plant response rating [9, 16]: 5 | Plant response rating, Wheat [9, 17]: 0 | Plant response rating (scale 0 to 100), Velvetleaf ([10]; Postemergence, 16 g ai/ha): 70 | Velvetleaf plant response rating [10, 15]: 65 | Velvetleaf plant response rating [10, 16]: 80 | Plant response rating, Velvetleaf [10, 17]: 100
